Measured values from patent US20260265331A1, “GLYCOSYLATED NEUROPEPTIDE DERIVATIVE INCLUDING NEUROPEPTIDE SEQUENCE AND SUGAR CHAIN, PHARMACEUTICAL COMPOSITION, INTRANASAL/NASAL DROP FORMULATION, AND USE OF GLYCOSYLATED NEUROPEPTIDE DERIVATIVE” (TOKYO UNIVERSITY OF SCIENCE FOUNDATION, priority 2022, published 2026).
Where no end group is shown, it is not given here. The star is where a group is joined. Cam = NC(=O)C*

Assays:
[1] = Quantification by GLP-2 ELISA of amount of migration to brain; assay type: in vivo, mice; conditions: 6.0 nmol/mouse intranasal, brain isolated 20 minutes after administration; FIG. 5
Description: Mice were intranasally administered with 16% DMSO or the GLP-2 derivatives (6.0 nmol/mouse). The brain was isolated 20 minutes after the administration, and homogenized with BioMasher II (Nippi, Tokyo, Japan). A sample was prepared by performing centrifugal separation by 1000×g (4° C.) for 15 minutes and collecting a supernatant. The amount of the GLP-2 derivative in the sample was quantified using a GLP-2 ELISA kit. Specifically, a cleaning process including filling each well of a measurement plate with a cleaning fluid (350 μL) and suctioning the cleaning fluid with a pipette was performed three times. […] Finally, an enzyme reaction stop solution (100 μL) was added and an absorbance at 490 nm was measured with ARVO (PerkinElmer Japan Co., Ltd., Kanagawa, Japan) to calculate the concentration of a GLP-2 derivative.
Mice were intranasally administered with the PAS-CPP-GLP-2 derivative prepared in Example 1 (C-terminus 11-sugar, no linker, C11), the PAS-CPP-GLP-2 derivative (N-terminus 11-sugar, no linker, N11), and the PAS-CPP-GLP-2 derivative glycosylated via a C6 alkylene group (N-terminus 11-sugar, with C6 linker, C6), respectively (6.0 nmol/mouse). […] The amount of the GLP-2 derivative in the sample was quantified using a GLP-2 ELISA kit. […]

[2] = Distribution in brain by immunostaining of frozen brain sections (Examples 6 and 7); assay type: in vivo, mice; conditions: Example 7, 3.0 nmol/mouse intranasal
Description: The brain was isolated 5 minutes after the administration and 20 minutes after the administration, respectively.
(§1) The brain isolated 5 minutes after the intranasal administration was subjected to infiltration fixation with 4% PFA at 4° C. overnight without performing perfusion fixation. The isolation of the brain 20 minutes after the intranasal administration was performed by the following process.
The mouse was fixed in a supine position under anesthesia with isoflurane, and the chest was incised. The tissue was fixed by perfusing with PBS, and subsequently with 4% PFA, from the left chamber of the heart throughout the whole body. The isolated brain was preserved in a 4% PFA solution. On the day following the isolation, the brain samples were substituted with 20% sucrose overnight (4° C.), and further with 30% sucrose overnight (4° C.). Thereafter, a frozen section with a thickness of 30 μm was prepared using a cryostat (CM3050S; Leica Microsystems).
The frozen brain section was mounted on a slide glass, and a circle was drawn around the section with a liquid blocker. A blocking buffer was added inside the circle and the section was subjected to blocking for 30 minutes at room temperature. Thereafter, the section was added with a first antibody solution including a GLP-2 polyclonal antibody, diluted by 200 times with a blocking solution, and subjected to incubation for 1 hour at room temperature. After rinsing three times with 1×PBS, the section was added with a second antibody solution including Alexa Fluor (trademark) 568 Goat Anti-Mouse IgG H&L, diluted by 500 times with a BSA/PBS solution, and subjected to incubation for 1 hour at room temperature. After rinsing three times with 1×PBS, the section was mounted with ProLong (trademark) Diamond Antifade Mountant. After confirming the solidification of the mountant, the section was subjected to fluorescent observation and imaging with a confocal laser microscope (TCS SP8; Leica) and a software (Leica Application Suite X Software; Leica).
Mice were intranasally administered with 16% DMSO or the GLP-2 derivatives (3.0 nmol/mouse), and the brain was isolated 5 minutes, 10 minutes, 20 minutes and 60 minutes after the administration.
as §1, with “isolated 5 minutes or 10 minutes after” for “isolated 5 minutes after”, “20 minutes or 60 minutes after the” for “20 minutes after the”
Sections of the olfactory bulb (OB) including olfactory nerves, pons/principal sensory nucleus of trigeminal nerve (Pr5), hippocampus (HIP) and dorsomedial nucleus of the hypothalamus (DMH) were prepared by referring to the Nissil staining images and the brain map (Paxinos and Franklin, 2003).
The frozen brain section was mounted on a slide glass, and a circle was drawn around the section with a liquid blocker. A blocking buffer was added inside the circle and the section was subjected to blocking for 30 minutes at room temperature. Thereafter, the section was added with a first antibody solution including a GLP-2 polyclonal antibody, diluted by 200 times with a blocking solution, and subjected to incubation for 1 hour at room temperature. […]

## FFLIPKGRRRRRRRRGGHADGSFSDEMNTILDNLAARDFINWLIQTKITDC(Cam)-OH [PAS-CPP-GLP-2 derivative (no sugar)]
[1]
  amount of GLP-2 derivative in brain (ELISA): below the detection limit
[2]; 5 minutes, FIG. 7A
  fluorescence at OB and Pr5: a significant degree of fluorescence was observed
[2]; 20 minutes, FIG. 7B
  fluorescence at HIP and DMH: intense fluorescence was observed
  fluorescence at OB: a significant degree of fluorescence was observed at OB
  fluorescence intensity at OB or Pr5 relative to 5 minutes: weaker than the fluorescence observed 5 minutes after the administration
[2]; 60 minutes, FIG. 7C
  fluorescence at HIP and DMH: fluorescence was not observed
